Values belong to the compound of their own block, whether it stands above or below them. Active and inactive are the calls of the source.
How the values were obtained:
[1] = molecular target: Potassium channel subfamily K member 9 (Homo sapiens, UniProt Q9NPC2); assay: KCNK9 flux blockade, concentration-response – cell-based, FluxOR thallium flux, selectivity assay for TASK1 inhibitor project, SAR follow-up (AID 652211); format: functional;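 note: potency is for inhibitors of the channel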
[2] = molecular target: Potassium channel subfamily K member 3 (Rattus norvegicus, UniProt O54912); assay: SAR analysis for the identification of selective inhibitors of the two-pore domain potassium channel TASK1(KCNK3):Automated Electrophysiology.; format: functional
Sequence of Potassium channel subfamily K member 3 (O54912 whole entry, the tested form may be a part): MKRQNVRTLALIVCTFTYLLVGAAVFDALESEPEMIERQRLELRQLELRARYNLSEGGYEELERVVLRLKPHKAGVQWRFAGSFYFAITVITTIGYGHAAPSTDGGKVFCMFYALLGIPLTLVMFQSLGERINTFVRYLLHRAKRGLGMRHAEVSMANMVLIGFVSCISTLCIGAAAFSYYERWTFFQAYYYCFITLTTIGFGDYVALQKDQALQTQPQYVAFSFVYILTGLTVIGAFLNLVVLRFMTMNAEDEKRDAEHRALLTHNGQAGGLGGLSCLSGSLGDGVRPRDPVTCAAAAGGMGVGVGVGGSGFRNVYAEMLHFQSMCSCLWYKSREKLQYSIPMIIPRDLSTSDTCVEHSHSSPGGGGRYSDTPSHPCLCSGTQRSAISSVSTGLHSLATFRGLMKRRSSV

[3] = viability loss in HepG2 hepatoma cells – cell-based, cherry-picks, set 5, cytotoxicity control, dose response (AID 1053118); format: functional
[4] = viability loss in HEK293 kidney cells – cell-based, cherry-picks, set 5, cytotoxicity control, dose response (AID 1053117); format: functional
[5] = viability loss in A549 lung cancer cells – cell-based, cherry-picks, […], cytotoxicity control, dose response (AID 1053119); format: functional
[6] = growth inhibition of yeast DHODH-expressing 3D7 parasites – SYBR Green, dry powder samples, dose response (AID 1159570); format: functional, cell-based;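 note: parasite growth measured after 72 hours of compound exposure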
[7] = toxicity to human HepG2 hepatoma cells – cell-based, plate reader, dry powder samples, cytotoxicity control, dose response (AID 1159569); format: functional;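 note: inhibitor potency with signal falling toward the positive control level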
[8] = P. falciparum Dd2 growth inhibitors, dose response, SYBR Green, cherry-picked samples (AID 1159567); format: functional, cell-based
[9] = Dd2 malaria parasite growth inhibition potency – SYBR Green, dry powder samples, dose response (AID 1159566); format: functional, cell-based;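 note: potency for growth inhibition with lower SYBR green DNA signal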
[10] = growth inhibition of PfATP4-mutant resistant parasites – NITD609-resistant line, SYBR Green, dry powder, dose response (AID 1159571); format: functional, cell-based;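 note: parasites synchronized at ring stage by sorbitol before testing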
[11] = HEK293T viability loss – cell-based, ATP luminescence, dry powder, Set6, cytotoxicity control, dose response (AID 743142); format: functional; conditions: HEK293
[12] = viability loss in A549 lung cancer cells – cell-based, CellTiter-Glo luminescence, dry powder, set 3, cytotoxicity control, dose response (AID 743146); format: functional
[13] = molecular target: T1, High affinity choline transporter 1 (Homo sapiens, UniProt Q9GZV3); assay: inhibition of SLC5A7-mediated choline transport – cell-based, HEK-293 hCHT, [3H]-choline uptake, dose response (AID 652177); format: functional
T1 sequence (Q9GZV3 whole entry): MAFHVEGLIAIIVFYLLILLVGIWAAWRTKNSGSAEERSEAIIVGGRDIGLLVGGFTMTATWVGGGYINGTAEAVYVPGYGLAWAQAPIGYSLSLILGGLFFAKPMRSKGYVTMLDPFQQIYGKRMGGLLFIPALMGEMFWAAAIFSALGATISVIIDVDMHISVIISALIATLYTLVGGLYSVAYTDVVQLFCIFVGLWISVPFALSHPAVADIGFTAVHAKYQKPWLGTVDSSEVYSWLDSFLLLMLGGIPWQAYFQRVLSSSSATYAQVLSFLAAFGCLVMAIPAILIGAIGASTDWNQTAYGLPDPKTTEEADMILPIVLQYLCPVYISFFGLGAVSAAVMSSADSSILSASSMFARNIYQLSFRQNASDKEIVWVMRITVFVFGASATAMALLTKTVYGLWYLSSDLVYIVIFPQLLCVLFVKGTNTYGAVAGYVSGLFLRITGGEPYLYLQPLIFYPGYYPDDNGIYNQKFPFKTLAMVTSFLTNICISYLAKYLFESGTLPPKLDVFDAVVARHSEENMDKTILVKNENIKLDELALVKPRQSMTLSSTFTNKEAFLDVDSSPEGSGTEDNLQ

[14] = Counterscreen for […] of the human trace amine associated receptor 1 (TAAR1): Fluorescence-based cell-based high throughput dose response assay to identify nonselective Ga16 agonists.; format: functional
[15] = molecular target: T2, Trace amine-associated receptor 1 (Homo sapiens, UniProt Q96RJ0); assay: Fluorescence-based cell-based high throughput dose response assay to identify antagonists of the human trace amine associated receptor 1 (TAAR1).; format: functional
T2 sequence (Q96RJ0 whole entry): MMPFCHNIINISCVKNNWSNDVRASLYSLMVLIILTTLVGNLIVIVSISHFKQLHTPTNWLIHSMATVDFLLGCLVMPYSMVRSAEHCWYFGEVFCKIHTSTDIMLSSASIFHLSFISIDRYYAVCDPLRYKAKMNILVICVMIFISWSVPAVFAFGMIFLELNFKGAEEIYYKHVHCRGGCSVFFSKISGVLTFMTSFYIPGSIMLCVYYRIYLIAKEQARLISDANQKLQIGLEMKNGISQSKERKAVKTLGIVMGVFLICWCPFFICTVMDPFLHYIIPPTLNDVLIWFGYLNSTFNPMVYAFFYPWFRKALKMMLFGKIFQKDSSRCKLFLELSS

[16] = Counterscreen for antagonists of the human trace amine associated receptor 1 (hTAAR1): Fluorescence-based cell-based high throughput dose response assay to identify nonselective Ga16 antagonists.; format: functional
[17] = molecular target: T2, Trace amine-associated receptor 1; assay: Counterscreen for antagonists of the human trace amine associated receptor 1 (hTAAR1): Fluorescence-based cell-based high throughput dose response assay to identify TAAR1 Agonists.; format: functional
[18] = molecular target: RNA-editing ligase 1, mitochondrial (Trypanosoma brucei brucei, UniProt P86926); assay: inhibition of trypanosome RNA editing ligase – biochemical, fluorescence, Trypanosoma brucei, dose response (AID 1117295); format: functional
Sequence of RNA-editing ligase 1, mitochondrial (P86926 whole entry): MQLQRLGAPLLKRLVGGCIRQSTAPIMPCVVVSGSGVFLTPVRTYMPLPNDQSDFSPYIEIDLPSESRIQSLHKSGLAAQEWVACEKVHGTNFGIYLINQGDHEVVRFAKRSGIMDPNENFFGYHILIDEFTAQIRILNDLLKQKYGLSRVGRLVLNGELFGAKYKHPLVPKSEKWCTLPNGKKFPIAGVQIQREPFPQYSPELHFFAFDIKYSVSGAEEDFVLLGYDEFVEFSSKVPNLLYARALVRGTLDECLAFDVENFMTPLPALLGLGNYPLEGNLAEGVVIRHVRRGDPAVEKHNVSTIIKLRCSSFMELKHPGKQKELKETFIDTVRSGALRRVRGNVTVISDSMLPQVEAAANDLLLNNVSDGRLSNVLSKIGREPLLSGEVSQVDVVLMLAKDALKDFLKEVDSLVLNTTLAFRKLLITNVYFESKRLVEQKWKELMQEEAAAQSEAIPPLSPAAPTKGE

[19] = inhibitors of TRPM1-promoter reporter in SK-MEL-5 – cell-based, luciferase, dry powder, set 9, MITF inhibitor project, dose response (AID 651588); format: functional
[20] = MITF Orthogonal Assay: MALME3 CTG Assay Measured in Cell-Based System Using Plate Reader - 2084-04_Inhibitor_Dose_DryPowder_Activity_Set6.; format: functional; conditions: MALME-3
[21] = growth inhibition of SK-MEL-5 melanoma cells – cell-based, CellTiter-Glo luminescence, dry powder, set 8, orthogonal assay for MITF inhibitor project, dose response (AID 651586); format: functional
[22] = growth inhibition of MALME3 cells – cell-based, CellTiter-Glo luminescence, dry powder, set 5, orthogonal assay for MITF inhibitor project, dose response (AID 651584); format: functional; conditions: MALME-3
[23] = MITF Orthogonal Assay: SK-MEL-5 CTG Assay Measured in Cell-Based System Using Plate Reader - 2084-02_Inhibitor_Dose_DryPowder_Activity_Set7.; format: functional
[24] = MITF: Counter assay: A375 proliferation Measured in Cell-Based System Using Plate Reader - 2084-03_Inhibitor_Dose_DryPowder_Activity_Set8.; format: functional; conditions: A-375
[25] = cytotoxicity in MITF-independent A375 cells – cell-based, CellTiter-Glo luminescence, dry powder, set 9, counter-screen for MITF modulator project, dose response (AID 651591); format: functional; conditions: A-375
[26] = inhibitors of TRPM1-promoter reporter in SK-MEL-5 – cell-based, luciferase, dry powder, set 8, MITF inhibitor project, dose response (AID 624430); format: functional

Sequence of Potassium channel subfamily K member 9 (Q9NPC2 whole entry, the tested form may be a part): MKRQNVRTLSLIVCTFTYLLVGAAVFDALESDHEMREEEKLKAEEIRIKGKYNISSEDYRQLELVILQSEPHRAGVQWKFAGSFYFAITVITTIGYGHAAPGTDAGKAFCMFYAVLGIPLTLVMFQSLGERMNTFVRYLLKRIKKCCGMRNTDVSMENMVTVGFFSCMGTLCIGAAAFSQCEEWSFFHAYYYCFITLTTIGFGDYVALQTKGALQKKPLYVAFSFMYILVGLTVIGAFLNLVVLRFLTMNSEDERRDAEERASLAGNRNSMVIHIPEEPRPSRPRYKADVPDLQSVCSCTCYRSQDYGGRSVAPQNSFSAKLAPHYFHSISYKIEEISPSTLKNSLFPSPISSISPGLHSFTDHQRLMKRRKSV

- IC50 [1]: 1.04 µM (active)
- IC50 [2]: 0.01 µM (active)
SMILES: CCOc1ccccc1C(=O)Nc1cccc(NC(=O)c2ccccc2C(F)(F)F)c1

SMILES: CO[C@H]1CN(C)C(=O)c2cc(NC(=O)Nc3ccc(C(F)(F)F)cc3)ccc2OC[C@H](C)NC[C@H]1C
- AC50 [3]: > 52 µM (inactive)
- AC50 [4]: > 52 µM (inactive)
- AC50 [5]: > 52 µM (inactive)
- AC50 [6]: 1.37 µM (active)
- AC50 [7]: 19.2 µM (active)
- AC50 [8]: 2.49 µM (active)
- AC50 [9]: 1.56 µM (active)
- AC50 [10]: 2.76 µM (active)

SMILES: O=C(CCNC(=O)c1ccc(OC(F)(F)F)cc1)N[C@@H]1CCCc2ccccc21
- AC50 [11]: 6.21 µM (active)
- AC50 [12]: 26 µM (active)

- IC50 [13]: 4.6 µM (active)
SMILES: COc1ccc(C(=O)NC(C)Cc2ccccn2)cc1OC1CCN(C(C)C)CC1 (stereo unspecified)

SMILES: NC(=O)COc1cccc(/C=N/NC(=O)c2ccc(-n3cccc3)cc2)c1
- EC50 [14]: > 29.9 µM (inactive)
- IC50 [15]: > 1.11 µM (active)
- IC50 [16]: > 29.9 µM (inactive)
- EC50 [17]: > 29.9 µM (inactive)

- IC50 [18]: > 96.6 µM (inactive)
SMILES: COC(=O)C1=C(C)N(Cc2cccc(C(F)(F)F)c2)C(NCc2ccccc2)=NC1c1ccccc1C(F)(F)F (stereo unspecified)

SMILES: O=C1C(Nc2ccc(F)cc2)=C(N2CCCCC2)C(=O)c2ccccc21
- AC50 [19]: 8.63 µM (active)
- AC50 [20]: 14.1 µM (active)
- AC50 [21]: 25.8 µM (active)
- AC50 [22]: 14.1 µM (active)
- AC50 [23]: 8.64 µM (active)
- AC50 [24]: 57.6 µM (active)
- AC50 [25]: 27.4 µM (active)
- AC50 [26]: 2.24 µM (active)
